Reference: publication PMC4414920 (European journal of pharmaceutical sciences : official …, 2015)
“Also recorded” adds a separate entry of the source. Like-named read-outs stand apart in the source and are kept apart here.

Experiments:
human liver microsomes [1] = type: in vitro ADME
[2] = tested on: recombinant human P450s 2C8, 2C9, 2C19, 2D6, 2E1, and 3A4; conditions: recombinant enzyme
[3] = humans; ref Trnavsky and Zachar, 1975; cited from earlier work
[4] = cats; ref Parton et al., 2000; cited from earlier work
P450 2C19 = conditions: 50 mg/day for 14 days; in vivo mephenytoin oxidation; ref Chen et al., 2003; cited from earlier work
[5] = dogs; ref Parton et al., 2000; cited from earlier work
[6] = various animals; ref Trnavsky and Zachar, 1975; cited from earlier work
human liver microsomes [7] = type: in vitro ADME; conditions: 100 μM desferrioxamine, Chelex 100-treated buffers, 0.5 nmol microsomal P450, 30 minutes
[8] = humans; ref Hutt et al., 1986; cited from earlier work
[9] = fluorescence detection, aspirin after deacetylation

For `CC(=O)Oc1ccccc1C(=O)O` [Aspirin, acetylsalicylic acid], the “product formation (2,3-DHBA or 2,5-DHBA) in the absence of NADPH” value (human liver microsomes [1]) was “No product formation”, the “maximum rate of 5-hydroxylation compared with salicylic acid” value (human liver microsomes [1]; data not shown) was “approximately five times lower” and the “2,5-DHBA formation with NADPH” value (human liver microsomes [1]; [9]) was “detected”. The “concentrations of the products with recombinant P450s” value [2] was “too low to quantitate”, the half-life [3] was ~ 6 h and the half-life [4] was 22 h. The “effect on P450 2C19” value (P450 2C19) was “increase”, the half-life [5] was 7.5 h and the half-life [6] was 1 to 38 h.

For `CC(=O)N(O)CCCCCNC(=O)CCC(=O)N(O)CCCCCNC(=O)CCC(=O)N(O)CCCCCN` [desferrioxamine], the “effect on formation of 2,3- and 2,5-DHBA” value (human liver microsomes [7]) was “did not inhibit but instead increased; also recorded: no inhibition”.

In the case of `O=C(O)c1ccccc1O` [salicylic acid], the directly excreted [8] is listed as 1–31%, the “product formation (2,3-DHBA or 2,5-DHBA) in the absence of NADPH” value (human liver microsomes [1]) is listed as “not detected” and the “2,3-DHBA formation with NADPH” value (human liver microsomes [1]; [9]) is listed as “detected”. For the same compound, the “2,5-DHBA formation with NADPH” value (human liver microsomes [1]; [9]) was “detected”.

In the case of `O=C(O)CNC(=O)c1ccccc1O` [salicyluric acid], the “share of the products of salicylic acid metabolism” value [8] is given as 20–65%.
